Laboratory results from ChEMBL document CHEMBL1133933, “Imidazolopyrazinones as potential antioxidants” (Bioorg Med Chem Lett, 2001).

Legend:
[1] = Krel expressed as Ki with respect to Ktrolox
[2] = Reaction rate constant of the compound

SMILES | Krel [1] | reaction rate constant [2] [M⁻¹ s⁻¹]
Cc1c(C)c2c(c(C)c1O)CCC(C)(C(=O)O)O2 (stereo unspecified) [TROLOX] | 1 | 17000
Cl.Oc1ccc(-c2cn3c(O)c(-c4ccccc4)nc3cn2)cc1 | 6.2 | 105000
Cc1nc2cnc(-c3ccccc3)cn2c1O.Cl | 10 | 170000
Cl.Oc1c(-c2ccccc2)nc2cnccn12 | 4.9 | 84000
COc1ccc(-c2cn3c(O)c(Cc4ccccc4)nc3cn2)cc1.Cl | 9.4 | 160000
COc1ccc(-c2cn3c(O)c(C)nc3cn2)cc1.Cl | 16.5 | 280000
Cl.Oc1ccc(-c2cn3c(O)c(Cc4ccccc4)nc3cn2)cc1 | 1.9 | 33000
Cc1nc2cnccn2c1O.Cl | 3.5 | 60000
COc1ccc(-c2cn3c(O)c(Cc4ccc(O)cc4)nc3c(Cc3ccccc3)n2)cc1 | 5.6 | 96000
Oc1ccc(Cc2nc3c(Cc4ccccc4)nc(-c4ccc(O)cc4)cn3c2O)cc1 [COELENTERAZINE] | 7.1 | 120000
Cc1nc2cnc(-c3ccc(O)cc3)cn2c1O.Cl | 12.3 | 210000
Cl.Oc1c(Cc2ccccc2)nc2cnccn12 | 1.6 | 28000
Cl.Oc1c(Cc2ccccc2)nc2cnc(-c3ccccc3)cn12 | 3.8 | 65000
